Results on two compounds are retold here after ChEMBL document CHEMBL1154337, “Synthesis of a novel C2/C2'-aryl-substituted pyrrolo[2,1-c][1,4]benzodiazepine dimer prodrug with improved water solubility and reduced DNA reaction rate” (Bioorg Med Chem Lett, 2009).

For one test, the system named is K562. Kind of test: Cytotoxicity against human K562 cells by alamar blue assay. In kind it is functional. For orientation: The colour change of resazurin is a common sign of viable cells or microbes.
Another test deals with A549. The test can be described thus: Cytotoxicity against human A549 cells by alamar blue assay. It is filed as functional.
The next test deals with Nucleic Acid. The test can be described thus: Induction of Escherichia coli pUC18 DNA interstrand crosslinking activity assessed as time required to reach peak. It is filed as nucleic-acid assay.
The next test has as its system RPMI-8226. The test can be described thus: Cytotoxicity against human RPMI8226 cells by alamar blue assay. In kind it is functional.
A further test concerns A2780. The test can be described thus: Cytotoxicity against human A2780 cells by alamar blue assay. It is filed as functional.
The next test deals with DU-145. The test can be described thus: Cytotoxicity against human DU145 cells by alamar blue assay. It is filed as functional.
Test [1] is described as follows: Cytotoxicity against human LNCaP-FGC cells by alamar blue assay. In kind it is functional. Conditions: LNCaP-Clone-FGC.
The next test has as its system LOX IMVI. Kind of test: Cytotoxicity against human LOXIMVI cells by alamar blue assay. It is filed as functional.
For a further test, the system named is MCF7. Kind of test: Cytotoxicity against human MCF7 cells by alamar blue assay. It is filed as functional.

Consider `C=C1C[C@H]2C=Nc3cc(OCCCOc4cc5c(cc4OC)C(=O)N4CC(=C)C[C@H]4C=N5)c(OC)cc3C(=O)N2C1` [SJG-136], for which the GI50 (as a rule, the concentration that inhibits growth by half) in the test on K562 amounted to 0.419 nM.

On to `COc1ccc(C2=CN3C(=O)c4cc(OC)c(OCCCOc5cc6c(cc5OC)C(=O)N5C=C(c7ccc(OC)cc7)C[C@H]5C=N6)cc4N=C[C@@H]3C2)cc1`, for which the GI50 was 0.033 nM with A549; 0.0051 nM with RPMI-8226; 0.0024 nM in the test with A2780; 0.0154 nM in the test on DU-145; 0.0027 nM in test [1]; 0.0225 nM in the test with LOX IMVI. The GI50 in the test with MCF7 was 0.0186 nM; with K562 it was 0.013 nM. The Activity in the test on Nucleic Acid turned out to be 2 h.
